Measurements as given in patent US4894370A, “Compositions having fermentation analogs of virginiamycin M1 as active ingredient” (Merck & Co., Inc., priority 1988, dated 1990).

How the values were obtained:
gram-positive bacteria = details: cited from earlier work
Pancreatic CCK Receptor = biological target: T1, Pancreatic CCK Receptor (Rattus norvegicus, UniProt P30551); assay: Pancreatic Cholecystokinin Receptor Binding Assay (125I-CCK-8); details: added as protease inhibitors
T1 construct: Pancreatic receptor membranes were prepared by homogenzing a gram of fresh rat pancreas tissue; from tissue; host or cells: rat pancreas membranes
T1 sequence (P30551 1-444): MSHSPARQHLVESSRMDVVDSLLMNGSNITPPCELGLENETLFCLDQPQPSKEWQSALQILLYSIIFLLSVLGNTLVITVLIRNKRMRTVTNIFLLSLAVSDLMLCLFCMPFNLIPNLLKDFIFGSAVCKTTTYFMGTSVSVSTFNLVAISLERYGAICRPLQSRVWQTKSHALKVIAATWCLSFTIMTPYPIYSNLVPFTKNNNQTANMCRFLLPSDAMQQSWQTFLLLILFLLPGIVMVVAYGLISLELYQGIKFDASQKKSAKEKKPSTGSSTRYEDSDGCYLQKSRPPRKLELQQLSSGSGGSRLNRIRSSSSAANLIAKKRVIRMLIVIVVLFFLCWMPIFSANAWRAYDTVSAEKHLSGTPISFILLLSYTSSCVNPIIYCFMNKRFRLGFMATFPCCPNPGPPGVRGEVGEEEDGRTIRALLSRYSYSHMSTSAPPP
Description: Radiolabeled CCK-8 was purchased from New England Nullear as ^125 I-CCK-8. Receptor binding was performed according to Innis and Snyder Proc. Natl. Acad. Sci., 77, 6917 (1980), with the minor modification of adding the additional protease inhibitors, phenylmethane sulfonyl fluoride (PMSF) and o-phenanthroline, which have no effect on the ^125 I-CCK receptor binding assay. All assays were performed in triplicate. Pancreatic receptor membranes were prepared by homogenzing a gram of fresh rat pancreas tissue in 30 ml TRIS-HCl (50 mM), pH 7.7 using a Brinkman polytron PT10 (Brinkman). The homogenate was washed twice and collected by centrifugation at 48,000×g at 4° C. for 10 minutes. The membranes were resuspended in assay buffer consisting of 5 mM dithiothieitol, 0.1 mM bacitiacin, 5 mM MgCl2 ·H2 O, 0.2% heat denatured BSA, 1.2 mM PMSF and 0.5 mM O-phenanthroline at a concentration of 100 ml per gram of pancreas. […] The reaction mixtures were mixed briefly and placed in a 37° C. water bath with gentle shaking for 30 minutes. […] The filters were washed with 3×4 ml of the same buffer and the radioactivity associated with the filters was counted in a Beckman Gamma 5500 counter. […] The dried samples were then brought up in methanol/H2 O (1:1) and ready for assay.

[1] = vs CCK-33; cited from earlier work
gastric acid secretion = details: cited from earlier work

## CC1=C\[C@@H](O)CC(=O)Cc2nc(co2)C(=O)N2CCC=C2C(=O)O[C@H](C(C)C)[C@H](C)/C=C/C(=O)NC\C=C\1 [Virginiamycin M1]
gram-positive bacteria
  antibacterial specificity: generally specific for gram-positive bacteria

## c1cnc2c(c1)ccc1cccnc12 [o-phenanthroline]
Pancreatic CCK Receptor
  effect on the 125I-CCK receptor binding assay: no effect

## O=S(=O)(F)Cc1ccccc1 [phenylmethane sulfonyl fluoride (PMSF), phenylmethane sulfonyl fluoride]
Pancreatic CCK Receptor
  effect on the 125I-CCK receptor binding assay: no effect

## C-terminal octapeptide: C-terminal octapeptide of CCK
[1]
  efficacy relative to CCK-33: same efficacy

## Gastrin-17
Gastric acid secretion; vs Gastrin-13
  potency for stimulating gastric acid secretion relative to Gastrin-13: 2.5 times more potent
Gastric acid secretion; vs Gastrin-34
  potency for stimulating gastric acid secretion relative to Gastrin-34: 5 times more potent
